Tests used:
HTR1F = system: HTR1F; design: method as in PMID 17715266; settings: in mammals; cited from earlier work
chicken HTR1F [1] = molecular target: T1, chicken HTR1F (Gallus gallus, UniProt A0A4P9IUX1); experiment: pGL4-SRE-luciferase reporter assay, MAPK/ERK signaling; assay type: cell-based
Description: (§1) According to our previously established methods, chicken HTR1B or HTR1E or HTR1F was transiently expressed in human embryonic kidney 293 (HEK293) cells and treated by 5-HT (10^−11 to 10^−7 M) or HTR1 agonists (CP94253, BRL54443 or LY344864, 10^−11 to 10^−5 M) for six hours. The receptor-activated signaling pathways were then examined by pGL3-CRE-luciferase (capable of monitoring cAMP/PKA signaling pathways) and pGL4-SRE-luciferase reporter systems (capable of monitoring MAPK/ERK signaling pathways). Luminescence was measured by a multimode microplate reader (TriStar LB941, EG&G Berthold, Bad Wildbad, Germany) according to the manufacturer’s instruction.
(§2) HEK293 cells were transiently co-transfected with HTR1 expression plasmid and pGL3-CRE/pGL4-SRE luciferase reporter construct, and subjected to ligand treatment for 6 h before measurement. Effects of 5-HT (A), CP94253 (B), BRL54443 (C), and LY344864 (D) (10^−11–10^−7 M, 6 h) on forskolin (2 μM)-stimulated luciferase activity of HEK293 cells expressing chicken HTR1B, HTR1E, and HTR1F, monitored by a pGL3-CRE luciferase reporter system. Effects of 5-HT (E), CP94253 (F), BRL54443 (G), and LY344864 (H) (10^−11–10^−5 M, 6 h) on luciferase activity of HEK293 cells expressing chicken HTR1B, HTR1E, and HTR1F, monitored by a pGL4-SRE luciferase reporter system. HEK293 cells co-transfected with empty pcDNA3.1(+) and luciferase reporter construct were used as a control. Each data point represents the mean ± SEM of 3 replicates.

[2] = system: cultured chicken pituitary cells; experiment: VIP- or forskolin-stimulated PRL secretion, Western blot; assay type: cell-based; settings: 6 h; for effect on VIP-stimulated PRL secretion: VIP 5 nM; for effect on forskolin-stimulated PRL secretion: forskolin 2 μM
Protocol: As described in the previous experiment, anterior pituitaries were collected from 3-week-old male or female chicks; then, digested by 0.25% trypsin at 37 °C for 30 min. The dispersed pituitary cells were then cultured at a density of 5 × 10^5 cells/well on Corning® CellBIND® 48-well plates (Corning, Lowell, MA, USA) with culture medium 199 (M199, Gibco, Grand Island, NY, USA) containing 10% FBS (Gibco) at 37 °C with 5% CO2. After 18 h of culture, the culture medium was removed, and cells were treated with 120 μL M-199 containing various concentration of 5-HT (0.1 μM) or CP94253 (10 μM) or BRL54443 (10 μM) or LY344864 (10 μM) in the presence of VIP (5 nM) or forskolin (FK, 2 μM). After 6 h of treatment, the culture medium was collected for measurement of PRL secretion, and then pituitary cells were lysed with 1 × passive lysis buffer (Promega) and lysates were collected to examine intracellular PRL and β-actin levels. The protein samples were electrophoresed and transferred to the membrane, and then the standard procedures were used for protein detection. The PRL rabbit polyclonal antibody (1:500) against recombinant full-length chicken PRL were prepared in our laboratory and used to detect the PRL protein levels in our previous study.
Relative PRL levels were calculated as the ratio to the intracellular β-actin level and then expressed as a percentage of control or VIP or forskolin treatment groups. The relative mRNA level of each gene was first calculated as the ratio to that of β-actin and then expressed as fold change compared with the respective control. GraphPad Prism 7 (GraphPad Software Inc, San Diego, California, USA) was used for statistical analysis. Data were analyzed by the unpaired Student’s t-test (for two groups) or by one-way ANOVA, followed by the Dunnett’s test (for comparing treatment groups with control). Data are presented as mean ± SEM.
Figure 8 Western blot showing the effects of various selective agonists ((A): 5-HT; (B): CP94253; (C): BRL54443; (D): LY344864) on VIP (5 nM) or forskolin (FK, 2 μM)-stimulated cPRL secretion in cultured chicken pituitary cells. sPRL represents secretory PRL, and iPRL represents intracellular PRL. Protein levels were semi-quantified by densitometry, β-actin was used as an internal control. For the sPRL analysis, the 5 nM VIP or 2 μM FK treated group was regarded as 100%, while for the iPRL analysis, the control group (without any drug treatment) was regarded as 100%. Different letters indicate statistical difference between two groups (p ≤ 0.01), as determined by one-way ANOVA and a Tukey’s test. Each data point represents the mean ± SEM of three replicates (n = 3).

chicken HTR1F [3] = molecular target: T1, chicken HTR1F; experiment: pGL3-CRE-luciferase reporter assay, inhibition of forskolin-stimulated cAMP/PKA signaling; assay type: cell-based
Description: as §1
(§3) Luciferase reporter assays were performed to determine the signaling properties of HTR1B, HTR1E, and HTR1F using different ligands, including 5-HT (natural ligand), CP94253 (a selective HTR1B agonist), BRL54443 (a selective HTR1E agonist) and LY344864 (a selective HTR1F agonist) respectively. […] Using a pGL3-CRE-luciferase reporter system, the receptor-mediated inhibition of the cAMP/PKA signaling pathway was subsequently monitored as in our previous studies.
as §2

hens = system: hens; design: method as in doi:10.1016/0378-4320(78)90011-8; settings: injection eight hours before the pre-ovulation period; cited from earlier work
chicken HTR1B [4] = molecular target: T2, chicken HTR1B (Gallus gallus, UniProt D3Y1H8); experiment: pGL4-SRE-luciferase reporter assay, MAPK/ERK signaling; assay type: cell-based; settings: HEK293 cells expressing chicken HTR1B, stimulation of luciferase activity, 6 h, table values marked a roughly estimated, read-out: EC50, MAPK/ERK signaling pathway, HTR1B
Description: as §1, §2

chicken HTR1E [5] = molecular target: T3, chicken HTR1E (Gallus gallus, UniProt E1BS44); experiment: as above; assay type: cell-based
Description: as §1, §2

human HTR1E receptor = molecular target: human HTR1E receptor; design: method as in PMID 14744596; settings: read-out: EC50, stimulation of [35S]GTPγS; cited from earlier work
chicken HTR1B [6] = molecular target: T2, chicken HTR1B; experiment: Western blot of CREB and ERK1/2 phosphorylation in transfected HEK293 cells; assay type: cell-based; settings: HEK293 cells expressing HTR1B, 10 min
Protocol: (§4) HEK293 cells transfected with HTR1B, HTR1E or HTR1F expression plasmid were cultured on a 24-well plate at 37 °C and then treated with 5-HT for 10 min. Then, cells were lysed with 1 × passive lysis buffer (Promega). The phosphorylated ERK1/2 (pERK1/2) and CREB (pCREB) levels in cell lysates were examined by Western blot, as described in our previous studies.
(§5) In addition, Western blots were performed to elucidate these signaling properties of chicken HTR1B, HTR1E, and HTR1F. […] These findings further supported the functional coupling of the three receptors to the cAMP/PKA and MAPK/ERK signaling cascade, in agreement with previous luciferase assay results.
(§6) Figure 5 Western blot showing 5-HT treatment (100 nM, 10min) can inhibit the forskolin (FK) (2 μM)-stimulated phosphorylation levels of CREB (p-CREB) in HEK293 cells expressing chicken HTR1B, HTR1E, and HTR1F (A), and 5-HT treatment (10 μM, 10 min) can enhance phosphorylation of ERK1/2 (p-ERK1/2) in HEK293 cells expressing chicken HTR1B, HTR1E, and HTR1F (B).

chicken HTR1F [7] = molecular target: T1, chicken HTR1F; experiment: as above; assay type: cell-based; settings: HEK293 cells expressing HTR1F, 10 min
Protocol: as §4, §5, §6

chicken HTR1E [8] = molecular target: T3, chicken HTR1E; experiment: as above; assay type: cell-based; settings: HEK293 cells expressing HTR1E, 10 min
Protocol: as §4, §5, §6

HTR1B = system: HTR1B; design: method as in PMID 10936173; settings: human HTR1B stimulated with 5-HT; read-out: EC50, ERK activation; cited from earlier work
[9] = molecular target: guinea pig HTR1E receptor; design: method as in PMID 14744596; settings: read-out: EC50, stimulation of [35S]GTPγS; cited from earlier work
chicken HTR1B [10] = molecular target: T2, chicken HTR1B; experiment: pGL3-CRE-luciferase reporter assay, inhibition of forskolin-stimulated cAMP/PKA signaling; assay type: cell-based; settings: HEK293 cells expressing chicken HTR1B, inhibition of forskolin (2 μM)-stimulated luciferase activity, 6 h, read-out: EC50, cAMP/PKA signaling pathway, HTR1B
Description: as §1, §3, §2

chicken HTR1E [11] = molecular target: T3, chicken HTR1E; experiment: as above; assay type: cell-based
Description: as §1, §3, §2

T3 sequence (E1BS44 1-371): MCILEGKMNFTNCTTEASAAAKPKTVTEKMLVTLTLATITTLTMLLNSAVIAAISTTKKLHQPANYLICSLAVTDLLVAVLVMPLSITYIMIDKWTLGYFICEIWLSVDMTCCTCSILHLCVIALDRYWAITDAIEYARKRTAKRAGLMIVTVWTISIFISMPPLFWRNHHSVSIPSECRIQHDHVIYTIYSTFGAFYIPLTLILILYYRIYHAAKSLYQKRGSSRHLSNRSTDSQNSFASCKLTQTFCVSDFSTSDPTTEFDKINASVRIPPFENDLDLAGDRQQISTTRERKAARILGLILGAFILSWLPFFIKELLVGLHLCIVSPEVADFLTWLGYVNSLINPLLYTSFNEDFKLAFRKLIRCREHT
T2 sequence (D3Y1H8 1-379): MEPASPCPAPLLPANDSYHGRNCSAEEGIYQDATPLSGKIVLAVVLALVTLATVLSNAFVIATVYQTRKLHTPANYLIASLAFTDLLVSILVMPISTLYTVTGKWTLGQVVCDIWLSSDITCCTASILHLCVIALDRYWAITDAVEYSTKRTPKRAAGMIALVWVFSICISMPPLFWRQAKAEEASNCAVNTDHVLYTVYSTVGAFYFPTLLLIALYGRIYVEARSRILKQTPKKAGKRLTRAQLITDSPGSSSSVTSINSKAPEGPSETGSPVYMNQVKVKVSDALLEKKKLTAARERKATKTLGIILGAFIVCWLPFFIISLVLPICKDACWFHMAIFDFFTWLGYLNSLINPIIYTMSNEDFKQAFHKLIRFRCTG
T1 sequence (A0A4P9IUX1 entry or part of it): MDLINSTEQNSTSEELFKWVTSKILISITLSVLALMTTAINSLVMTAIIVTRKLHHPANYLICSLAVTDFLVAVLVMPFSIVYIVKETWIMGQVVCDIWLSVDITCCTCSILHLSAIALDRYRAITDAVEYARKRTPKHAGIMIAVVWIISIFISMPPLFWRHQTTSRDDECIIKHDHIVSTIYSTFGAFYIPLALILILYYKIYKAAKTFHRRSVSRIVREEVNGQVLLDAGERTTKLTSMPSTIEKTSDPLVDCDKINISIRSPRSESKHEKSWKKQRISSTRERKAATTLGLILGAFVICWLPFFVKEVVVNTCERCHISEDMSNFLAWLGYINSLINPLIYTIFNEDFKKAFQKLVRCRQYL

CN(C)[C@@H]1CCc2[nH]c3ccc(NC(=O)c4ccc(F)cc4)cc3c2C1 [LY344864]
affinity for HTR1F relative to HTR1A, HTR1B, HTR1D, and HTR1E (HTR1F): ~ 100 fold
pKd for HTR1F (HTR1F): 8.2
EC50 (chicken HTR1F [1]; HEK293 cells expressing chicken HTR1F, pGL4-SRE-luciferase, stimulation of luciferase activity, 6 h, table values marked a roughly estimated, read-out: EC50, MAPK/ERK signaling pathway, HTR1F): > 200 nM
effect on VIP-stimulated PRL secretion ([2]; 10 μM): could significantly inhibit VIP-stimulated PRL secretion
effect on forskolin-stimulated PRL secretion ([2]; 10 μM): could significantly inhibit PRL secretion
EC50 (chicken HTR1F [3]; HEK293 cells expressing chicken HTR1F, pGL3-CRE-luciferase, inhibition of forskolin (2 μM)-stimulated luciferase activity, 6 h, read-out: EC50, cAMP/PKA signaling pathway, HTR1F): 1.8 nM

NCCc1c[nH]c2ccc(O)cc12 [5-HT, 5-hydroxytryptamine]
ovulation failure (hens): 90 % of hens
EC50 (chicken HTR1B [4]): > 800 nM
EC50 (chicken HTR1F [1]): > 500 nM
EC50 (chicken HTR1E [5]): > 100 nM
effect on forskolin-stimulated CREB phosphorylation (chicken HTR1B [6]; 100 nM, forskolin 2 μM): could inhibit forskolin (2 μM)-stimulated CREB phosphorylation
effect on ERK1/2 phosphorylation (chicken HTR1B [6]; 10 μM): could enhance ERK1/2 (44/42 kDa) phosphorylation
effect on forskolin-stimulated CREB phosphorylation (chicken HTR1F [7]; 100 nM, forskolin 2 μM): could inhibit forskolin (2 μM)-stimulated CREB phosphorylation
effect on ERK1/2 phosphorylation (chicken HTR1F [7]; 10 μM): could enhance ERK1/2 (44/42 kDa) phosphorylation
effect on forskolin-stimulated CREB phosphorylation (chicken HTR1E [8]; 100 nM, forskolin 2 μM): could inhibit forskolin (2 μM)-stimulated CREB phosphorylation
effect on ERK1/2 phosphorylation (chicken HTR1E [8]; 10 μM): could enhance ERK1/2 (44/42 kDa) phosphorylation
EC50 [9]: 13.6 ± 1.92 nM
effect on VIP-stimulated PRL secretion ([2]; 0.1 μM): showed no significant effect on VIP-stimulated PRL secretion
effect on forskolin-stimulated PRL secretion ([2]; 0.1 μM): showed no significant effect on PRL release
EC50 (chicken HTR1B [10]): 8 nM
EC50 (chicken HTR1F [3]): 5.7 nM
EC50 (chicken HTR1E [11]): 9.3 nM

CN1CCC(c2c[nH]c3ccc(O)cc23)CC1 [BRL54443, 3-(-1-methylpiperidin-4-yl)-1H-indol-5-ol]
EC50 (chicken HTR1E [5]): 28.8 nM
effect on VIP-stimulated PRL secretion ([2]; 10 μM): showed no significant effect on VIP-stimulated PRL secretion
effect on forskolin-stimulated PRL secretion ([2]; 10 μM): showed no significant effect on PRL release
EC50 (chicken HTR1E [11]): 2.4 nM

CCCOc1ccc2[nH]cc(C3=CCNCC3)c2n1 [CP94253]
EC50 (chicken HTR1B [4]): > 200 nM
effect on VIP-stimulated PRL secretion ([2]; 10 μM): showed no significant effect on VIP-stimulated PRL secretion
effect on forskolin-stimulated PRL secretion ([2]; 10 μM): showed no significant effect on PRL release
EC50 (chicken HTR1B [10]): 4 nM
